Assay results reported in patent US6376518B1, “Acyl derivatives of 4-demethylpenclomedine, use thereof and preparation thereof” (Southern Research Institute, priority 1999, dated 2002).

Columns and labels:
[1] = Anti-cancer activity of precursor compounds
human MX-1 mammary tumor [2] = assay: In vivo antitumor activity vs s.c.-implanted human MX-1 mammary tumor xenograft in athymic mice; details: for T-C / Tumor-Free-Surv/Total: sc MX-1; for antitumor activity (in words): MX-1 implanted s.c. or i.c.
human MX-1 mammary tumor [3] = assay: In vivo antitumor activity vs i.c.-implanted human MX-1 mammary tumor xenograft in athymic mice; details: ic MX-1
[4] = oral (gavage) 135 mg/kg/dose, Days 13-17
[5] = oral (gavage) 135 mg/kg/dose, Days 1-5
[6] = oral (gavage) 135 mg/kg/dose, Days 12-16

CCOc1nc(C(Cl)(Cl)Cl)c(Cl)c(OCC)c1Cl [3,5-dichloro-4,6-diethoxy-2-(trichloromethyl)pyridine]
anti-cancer activity (in words) [1]: active anti-cancer activity

CCOc1c(Cl)c(OC)nc(C(Cl)(Cl)Cl)c1Cl [3,5-dichloro-4-ethoxy-6 methoxy-2-(trichloromethyl) pyridine]
anti-cancer activity (in words) [1]: active anti-cancer activity

C=CC(=O)Oc1c(Cl)c(OC)nc(C(Cl)(Cl)Cl)c1Cl [DM-AC-PEN]
T-C (human MX-1 mammary tumor [2]; IP 60 mg/kg/dose, Days 12-16): 30.0 days
Tumor-Free-Surv/Total (human MX-1 mammary tumor [2]; IP 60 mg/kg/dose, Days 12-16): 1/5
Median % ILS (dying mice only) (human MX-1 mammary tumor [3]; IP 60 mg/kg/dose, Days 1-5): +55%

COc1nc(C(Cl)(Cl)Cl)c(Cl)c(OC(=O)c2ccccc2)c1Cl [DM-B-PEN]
antitumor activity (in words) (human MX-1 mammary tumor [2]; i.p. administration): high activity
antitumor activity (in words) (human MX-1 mammary tumor [2]; oral drug treatment): low antitumor activity
Tumor-Free-Surv/Total (human MX-1 mammary tumor [2]; IP 135 mg/kg/dose, Days 11-15): 5/5
T-C (human MX-1 mammary tumor [2]; [4]): -1.4 days
Tumor-Free-Surv/Total (human MX-1 mammary tumor [2]; [4]): 0/5
Median % ILS (dying mice only) (human MX-1 mammary tumor [3]; IP 135 mg/kg/dose, Days 1-5): +84%
Median % ILS (dying mice only) (human MX-1 mammary tumor [3]; [5]): +12%

COc1nc(C(Cl)(Cl)Cl)c(Cl)c(OC(=O)CBr)c1Cl [DM-BA-PEN]
T-C (human MX-1 mammary tumor [2]; IP 135 mg/kg/dose, Days 12-16): >41.0 days
Tumor-Free-Surv/Total (human MX-1 mammary tumor [2]; IP 135 mg/kg/dose, Days 12-16): 2/5

COc1nc(C(Cl)(Cl)Cl)c(Cl)c(OC(=O)CCl)c1Cl [DM-CA-PEN]
T-C (human MX-1 mammary tumor [2]; IP 60 mg/kg/dose, Days 12-16): >41.0 days
Tumor-Free-Surv/Total (human MX-1 mammary tumor [2]; IP 60 mg/kg/dose, Days 12-16): 3/5
T-C (human MX-1 mammary tumor [2]; [6]): >41.0 days
Tumor-Free-Surv/Total (human MX-1 mammary tumor [2]; [6]): 5/5
Median % ILS (dying mice only) (human MX-1 mammary tumor [3]; [5]): +84%

COC(=O)CCC(=O)Oc1c(Cl)c(OC)nc(C(Cl)(Cl)Cl)c1Cl [DM-CMP-PEN]
Tumor-Free-Surv/Total (human MX-1 mammary tumor [2]; IP 135 mg/kg/dose, Days 11-15): 3/5
Tumor-Free-Surv/Total (human MX-1 mammary tumor [2]; [4]): 2/5
Median % ILS (dying mice only) (human MX-1 mammary tumor [3]; IP 90 mg/kg/dose, Days 1-5): +87%
Median % ILS (dying mice only) (human MX-1 mammary tumor [3]; oral (gavage) 90 mg/kg/dose, Days 1-5): +76%

COc1nc(C(Cl)(Cl)Cl)c(Cl)c(OC(=O)C(Cl)Cl)c1Cl [DM-DCA-PEN]
Tumor-Free-Surv/Total (human MX-1 mammary tumor [2]; IP 135 mg/kg/dose, Days 12-16): 2/5

COc1nc(C(Cl)(Cl)Cl)c(Cl)c(OC(=O)c2ccco2)c1Cl [DM-F-PEN]
Tumor-Free-Surv/Total (human MX-1 mammary tumor [2]; IP 90 mg/kg/dose, Days 12-16): 5/5
activity against i.c.-implanted tumor in comparison to PEN and DM-PEN (in words) (human MX-1 mammary tumor [3]): significant activity
Tumor-Free-Surv/Total (human MX-1 mammary tumor [3]; IP 135 mg/kg/dose, Days 1-5): 2/5
Survivors (human MX-1 mammary tumor [3]; optimal doses (LD10 or less), schedule QD1-5, administered LP.): 2/5
